Experimental data: article PMC10504751, “Chalcone/1,3,4-Oxadiazole/Benzimidazole hybrids as novel anti-proliferative agents inducing apoptosis and inhibiting EGFR & BRAFV^600E” (BMC Chemistry, 2023)
Several values for one entry are separate records, joined by “and”; a condition that tells them apart may be missing. Equal values may be shown once. Read-outs that look alike come from different tables or passages of the source.

Columns and labels:
HCC-2998 = assay: NCI one-dose SRB anti-proliferative screen; type: cell-based; details: Homo sapiens, read-out: Cell growth inhibition %
Procedure, shortened: (§1)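 Using a fixed 10 µM dose, anti-proliferative activity is measured through sulforhodamine B binding, read colorimetrically, in one of sixty human tumour lines.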

HOP-92 = assay: NCI one-dose SRB anti-proliferative screen; type: cell-based; details: Homo sapiens, read-out: Cell growth inhibition %
Procedure, shortened: as §1

SF-268 = assay: NCI one-dose SRB anti-proliferative screen; type: cell-based; details: Homo sapiens, read-out: Cell growth inhibition %
Procedure, shortened: as §1

HL-60(TB) = assay: NCI one-dose SRB anti-proliferative screen; type: cell-based; details: Homo sapiens, read-out: Cell growth inhibition %
Procedure, shortened: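 Activity reflects a single-point exposure at 10 µM, with cell mass determined by a sulforhodamine B dye assay.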

M14 = assay: NCI one-dose SRB anti-proliferative screen; type: cell-based; details: Homo sapiens, read-out: Cell growth inhibition %
Procedure, shortened: as §1

MALME-3M = assay: NCI one-dose SRB anti-proliferative screen; type: cell-based; details: Homo sapiens, read-out: Cell growth inhibition %
Procedure, shortened: as §1

MDA-MB-435 = assay: NCI one-dose SRB anti-proliferative screen; type: cell-based; details: Homo sapiens, read-out: Cell growth inhibition %
Procedure, shortened: as §1

SNB-19 = assay: NCI one-dose SRB anti-proliferative screen; type: cell-based; details: Homo sapiens, read-out: Cell growth inhibition %
Procedure, shortened: as §1

MDA-MB-231/ATCC = assay: NCI one-dose SRB anti-proliferative screen; type: cell-based; details: Homo sapiens, read-out: Cell growth inhibition %
Procedure, shortened: as §1

SK-MEL-28 = assay: NCI one-dose SRB anti-proliferative screen; type: cell-based; details: Homo sapiens, read-out: Cell growth inhibition %
Procedure, shortened: as §1

NCI-H322M = assay: NCI one-dose SRB anti-proliferative screen; type: cell-based; details: Homo sapiens, read-out: Cell growth inhibition %
Procedure, shortened: as §1

A498 = assay: NCI one-dose SRB anti-proliferative screen; type: cell-based; details: Homo sapiens, read-out: Cell growth inhibition %
Procedure, shortened: as §1

SF-539 = assay: NCI one-dose SRB anti-proliferative screen; type: cell-based; details: Homo sapiens, read-out: Cell growth inhibition %
Procedure, shortened: as §1

SNB-75 = assay: NCI one-dose SRB anti-proliferative screen; type: cell-based; details: Homo sapiens, read-out: Cell growth inhibition %
Procedure, shortened: as §1

A549/ATCC = assay: NCI one-dose SRB anti-proliferative screen; type: cell-based; details: Homo sapiens, read-out: Cell growth inhibition %
Procedure, shortened: as §1

NCI-H522 = assay: NCI one-dose SRB anti-proliferative screen; type: cell-based; details: Homo sapiens, read-out: Cell growth inhibition %
Procedure, shortened: as §1

SK-MEL-5 = assay: NCI one-dose SRB anti-proliferative screen; type: cell-based; details: Homo sapiens, read-out: Cell growth inhibition %
Procedure, shortened: as §1

TK-10 = assay: NCI one-dose SRB anti-proliferative screen; type: cell-based; details: Homo sapiens, read-out: Cell growth inhibition %
Procedure, shortened: as §1

COLO 205 = assay: NCI one-dose SRB anti-proliferative screen; type: cell-based; details: Homo sapiens, read-out: Cell growth inhibition %
Procedure, shortened: as §1

NCI/ADR-RES = assay: NCI one-dose SRB anti-proliferative screen; type: cell-based; details: Homo sapiens, read-out: Cell growth inhibition %
Procedure, shortened: as §1

[1] = system: melanoma LOX-IMVI cell line; assay: Propidium iodide anti-proliferative assay in LOX-IMVI; type: cell-based, human; details: Homo sapiens; melanoma LOX-IMVI, 48 h incubation
Procedure: Consequently, the half-maximal inhibitory concentration (IC50) of these compounds was determined in LOX-IMVI cell line using propidium iodide (PI)^31, 32 with Staurosporine (broad spectrum protein kinase inhibitor) as a reference.
Cells whose cell membranes are damaged or have changed permeability are counted as dead ones. […] The medium was removed; the compounds were added to the plates at 10 µM concentrations (in 0.1% DMSO) in triplicates, followed by incubation for 48 h. DMSO (0.1%) was used as control. After incubation, medium was removed followed by the addition of PI (25 µl, 50µg/mL in water/medium) to each well of the plates. At -80 °C, the plates were allowed to freeze for 24 h, followed by thawing at 25 °C. A fluorometer (Polar-Star BMG Tech) was used to record the readings at excitation and emission wavelengths of 530 and 620 nm for each well. The percentage cytotoxicity of compounds was calculated using the following formula:
Where ATC= Absorbance of treated cells and AC= Absorbance of control.

BRAF^V600E = assay: biochemical
Chain of BRAF^V600E (P28028 whole entry V585E): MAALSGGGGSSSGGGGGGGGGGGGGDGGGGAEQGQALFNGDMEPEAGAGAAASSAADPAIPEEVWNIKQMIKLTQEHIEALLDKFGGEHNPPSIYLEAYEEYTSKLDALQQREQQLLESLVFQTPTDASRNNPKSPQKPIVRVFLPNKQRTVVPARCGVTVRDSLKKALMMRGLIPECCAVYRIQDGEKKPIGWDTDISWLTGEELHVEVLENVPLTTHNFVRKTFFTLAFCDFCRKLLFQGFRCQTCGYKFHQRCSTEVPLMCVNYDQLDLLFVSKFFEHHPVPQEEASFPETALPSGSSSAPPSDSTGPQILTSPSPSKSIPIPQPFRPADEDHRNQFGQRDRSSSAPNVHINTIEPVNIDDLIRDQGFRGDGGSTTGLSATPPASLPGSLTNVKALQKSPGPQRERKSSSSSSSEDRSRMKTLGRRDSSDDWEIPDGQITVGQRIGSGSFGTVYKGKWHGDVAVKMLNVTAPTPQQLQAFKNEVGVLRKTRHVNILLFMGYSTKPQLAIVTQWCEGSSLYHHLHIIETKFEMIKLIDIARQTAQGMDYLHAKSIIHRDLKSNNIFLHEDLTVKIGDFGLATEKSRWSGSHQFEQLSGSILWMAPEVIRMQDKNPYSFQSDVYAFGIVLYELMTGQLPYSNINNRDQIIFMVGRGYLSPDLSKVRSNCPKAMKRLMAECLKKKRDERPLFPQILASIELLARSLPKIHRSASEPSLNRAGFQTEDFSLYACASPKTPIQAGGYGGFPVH
Procedure: To further denature the protein, heat (70° C) was applied for 5 min. […] 10 µL of each reaction was loaded into the precast plates and electrophoresis was allowed to proceed. After completion of electrophoresis, the front part of the precast gel plate (holding hot ATP) was cut and afterwards cast-off. The dried gel was developed using a phosphor screen.

EGFR = biological target: T1, EGFR (Homo sapiens, UniProt P00533); assay: EGFR-TK inhibitory assay; type: biochemical; details: for IC50: read-out: EGFR Inhibition IC50 ± SEM
T1 construct: EGFR cytoplasmic domain (EGFR-CD, amino acids 645–1186); His6 (N); made in house; host or cells: Sf-9 insect cells (baculovirus; pBlueBacHis2B / pFASTBacHTc)
T1 sequence (P00533 669-1210): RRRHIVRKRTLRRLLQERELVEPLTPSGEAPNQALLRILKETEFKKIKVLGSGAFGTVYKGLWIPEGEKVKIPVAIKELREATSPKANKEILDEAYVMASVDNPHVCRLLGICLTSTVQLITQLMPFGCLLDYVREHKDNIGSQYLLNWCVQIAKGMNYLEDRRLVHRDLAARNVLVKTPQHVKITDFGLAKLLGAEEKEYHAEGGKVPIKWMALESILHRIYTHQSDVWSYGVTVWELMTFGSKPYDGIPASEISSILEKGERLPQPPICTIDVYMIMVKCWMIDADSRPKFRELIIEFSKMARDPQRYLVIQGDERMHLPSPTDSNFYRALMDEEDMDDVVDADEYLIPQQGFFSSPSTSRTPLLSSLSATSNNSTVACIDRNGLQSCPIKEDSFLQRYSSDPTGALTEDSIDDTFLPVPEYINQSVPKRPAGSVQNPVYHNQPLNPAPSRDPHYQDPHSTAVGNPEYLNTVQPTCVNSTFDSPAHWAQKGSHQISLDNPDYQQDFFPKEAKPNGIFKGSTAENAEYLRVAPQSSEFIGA

[2] = system: Caspase-9 in MCF-7 breast cancer cells; assay: Caspase-9 assay; type: cell-based, human
[3] = system: Caspase-8 in MCF-7 breast cancer cells; assay: Caspase-8 assay; type: cell-based, human
[4] = system: Caspase-3 in MCF-7 breast cancer cells; assay: Caspase-3 assay
Procedure: All reagents were allowed to reach room temperature before use. All liquid reagents were gently mixed before use. The number of 8-well strips needed for the assay was determined. These were inserted into the frame(s) for current use. A total of 100 µL of the Standard Diluent Buffer was added to the zero standard wells. Well(s) reserved for chromogen blank were left empty. A total of 100 µL of standards and controls or diluted samples was added to the appropriate microtiter wells. The sample dilution chosen was optimized for each experimental system. The side of the plate was gently tapped on to
mix. Wells were covered with a plate cover and incubated for 2 h at room temperature. The solution was thoroughly aspirated or decanted from the wells and the liquid was discarded; wells were washed four times. […] The side of the plate was gently tapped on to mix. The plate was covered with a plate cover and incubated for 1h at room temperature. The solution was thoroughly aspirated or decanted from wells and the liquid was discarded; wells were washed four times. A total of 100 µL Anti-Rabbit IgG HRP Working Solution was added to each well except the chromogen blank(s). The working dilution was prepared as described in Preparing IgG HRP. Wells were covered with the plate cover and incubated for 30 min at room temperature. The solution was thoroughly aspirated or decanted from the wells and the liquid was discarded. Wells were washed four times. A total of 100 µL of Stabilized Chromogen was added to each well. The liquid in the wells began to turn blue. It was incubated for 30 min at room temperature and in the dark. The incubation time for chromogen substrate was determined by the microtiter plate reader used. Many plate readers have the capacity to record a maximum optical density (O.D.) of 2.0. The O.D. values were monitored, and the substrate reaction was stopped before the O.D. of the positive wells exceeds the limits of the instrument. The O.D. values at 450 nm could only be read after the Stop Solution had been added to each well. A total of 100 µL of Stop Solution was added to each well. The side of the plate was gently tapped to mix. The solution in the wells changed from blue to yellow. The absorbance of each well was read at 450 nm, having blanked the plate reader against a chromogen blank composed of 100 µL each of Stabilized Chromogen and Stop Solution. The plate was read within 2 h after adding the Stop Solution. A curve fitting software was used to generate the standard curve.
The concentrations for unknown samples and controls from the standard curve were read. Value(s) obtained for sample(s) by the appropriate dilution factor were multiplied to correct for the dilution in step 3.

O=C(CSc1nnc(-c2ccc3[nH]c(-c4ccc(Cl)cc4)nc3c2)o1)Nc1ccc(C(=O)/C=C/c2ccc(Cl)cc2)cc1 [Compound 7g, 2-{5-[2-(4-Chlorophenyl)-1 H-benzo[d]imidazol-5-yl]-1,3,4-oxadiazol-2-ylthio}-N-{4-[(E)-3-(4-chlorophenyl)acryloyl]phenyl}acetamide]
inhibition at 10 µM (HCC-2998; HCC-2998 (Colon Cancer), NCI one dose 10 µM): 0% | inhibition at 10 µM (HOP-92; HOP-92 (Non-Small Cell Lung Cancer), NCI one dose 10 µM): 5.81% | inhibition at 10 µM (SF-268; SF-268 (CNS Cancer), NCI one dose 10 µM): 0.08% | inhibition at 10 µM (HL-60(TB); HL-60(TB) (Leukemia), NCI one dose 10 µM): 14% | inhibition at 10 µM (M14; M14 (Melanoma), NCI one dose 10 µM): 0% | inhibition at 10 µM (MALME-3M; MALME-3M (Melanoma), NCI one dose 10 µM): 0% | inhibition at 10 µM (MDA-MB-435; MDA-MB-435 (Melanoma), NCI one dose 10 µM): 0.11% | inhibition at 10 µM (SNB-19; SNB-19 (CNS Cancer), NCI one dose 10 µM): 0.54% | inhibition at 10 µM (MDA-MB-231/ATCC; MDA-MB-231/ATCC (Breast Cancer), NCI one dose 10 µM): 9.38% | inhibition at 10 µM (SK-MEL-28; SK-MEL-28 (Melanoma), NCI one dose 10 µM): 0% | inhibition at 10 µM (NCI-H322M; NCI-H322M (Non-Small Cell Lung Cancer), NCI one dose 10 µM): 4.64% | inhibition at 10 µM (A498; A498 (Renal Cancer), NCI one dose 10 µM): 9.85% | inhibition at 10 µM (SF-539; SF-539 (CNS Cancer), NCI one dose 10 µM): 15.7% | inhibition at 10 µM (SNB-75; SNB-75 (CNS Cancer), NCI one dose 10 µM): 9.09% | inhibition at 10 µM (A549/ATCC; A549/ATCC (Non-Small Cell Lung Cancer), NCI one dose 10 µM): 4.52% | inhibition at 10 µM (NCI-H522; NCI-H522 (Non-Small Cell Lung Cancer), NCI one dose 10 µM): 11.6% | inhibition at 10 µM (SK-MEL-5; SK-MEL-5 (Melanoma), NCI one dose 10 µM): 6.32% | inhibition at 10 µM (TK-10; TK-10 (Renal Cancer), NCI one dose 10 µM): 0% | inhibition at 10 µM (COLO 205; COLO 205 (Colon Cancer), NCI one dose 10 µM): 0% | inhibition at 10 µM (NCI/ADR-RES; NCI/ADR-RES (Ovarian Cancer), NCI one dose 10 µM): 0% | IC50 [1]: 1.05 ± 0.1 µM | IC50 (BRAF^V600E): 1 ± 0.2 µM | IC50 (EGFR): 1.7 ± 0.2 µM

COc1ccc(-c2nc3cc(-c4nnc(SCC(=O)Nc5ccc(C(=O)/C=C/c6ccccc6)cc5)o4)ccc3[nH]2)cc1 [Compound 7k, 2-{5-[2-(4-Methoxyphenyl)-1 H-benzo[d]imidazol-5-yl]-1,3,4-oxadiazol-2-ylthio}-N-{4-[(E)-3-phenylacryloyl]phenyl}acetamide]
inhibition at 10 µM (HCC-2998; HCC-2998, Colon cancer, NCI one dose): 0% | inhibition at 10 µM (HOP-92; HOP-92, Non-Small Cell Lung Cancer, NCI one dose): 20.3% | inhibition at 10 µM (SF-268; SF-268, CNS Cancer, NCI one dose): 17.1% | inhibition at 10 µM (HL-60(TB); HL-60(TB), Leukemia, NCI one dose): 28.7% | inhibition at 10 µM (M14; M14, Melanoma, NCI one dose): 12.9% | inhibition at 10 µM (MALME-3M; MALME-3M, Melanoma, NCI one dose): 26.6% | inhibition at 10 µM (MDA-MB-435; MDA-MB-435, Melanoma, NCI one dose): 33.6% | inhibition at 10 µM (SNB-19; SNB-19, CNS Cancer, NCI one dose): 0% | inhibition at 10 µM (MDA-MB-231/ATCC; MDA-MB-231/ATCC, Breast cancer, NCI one dose): 22.5% | inhibition at 10 µM (SK-MEL-28; SK-MEL-28, Melanoma, NCI one dose): 11.4% | inhibition at 10 µM (NCI-H322M; NCI-H322M, Non-Small Cell Lung Cancer, NCI one dose): 0% | inhibition at 10 µM (A498; A498, Renal cancer, NCI one dose): 19.9% | inhibition at 10 µM (SF-539; SF-539, CNS Cancer, NCI one dose): 27.5% | inhibition at 10 µM (SNB-75; SNB-75, CNS Cancer, NCI one dose): 33.7% | inhibition at 10 µM (A549/ATCC; A549/ATCC, Non-Small Cell Lung Cancer, NCI one dose): 5.82% | inhibition at 10 µM (NCI-H522; NCI-H522, Non-Small Cell Lung Cancer, NCI one dose): 17.3% | inhibition at 10 µM (SK-MEL-5; SK-MEL-5, Melanoma, NCI one dose): 49.2% | inhibition at 10 µM (TK-10; TK-10, Renal cancer, NCI one dose): 0% | inhibition at 10 µM (COLO 205; COLO 205, Colon cancer, NCI one dose): 0% | inhibition at 10 µM (NCI/ADR-RES; NCI/ADR-RES, Ovarian Cancer, NCI one dose): 10.3% | Caspase-9 Fold change ([2]; MCF-7, vs untreated control): 17 fold and 17.00 fold | Caspase-9 Conc ([2]; MCF-7 breast cancer cells): 15.900 ng/mL | Caspase-8 Fold change ([3]; MCF-7, vs untreated control): 10 fold and 9.90 fold | Caspase-8 Conc ([3]; MCF-7 breast cancer cells): 1.680 ng/mL | IC50 (BRAF^V600E): 1.7 ± 0.2 µM | Caspase-3 Fold change ([4]; MCF-7, vs untreated control): 8 fold and 7.60 fold | Caspase-3 Conc ([4]; MCF-7 breast cancer cells): 501.60 ± 4.00 pg/mL | fold less potent than Erlotinib against EGFR (EGFR): approximately 7 fold | IC50 (EGFR): 0.55 ± 0.1 µM
